Test [1] has as its target T1, Dual specificity protein phosphatase 26 (Homo sapiens, UniProt Q9BV47).
T1 sequence (Q9BV47 whole entry): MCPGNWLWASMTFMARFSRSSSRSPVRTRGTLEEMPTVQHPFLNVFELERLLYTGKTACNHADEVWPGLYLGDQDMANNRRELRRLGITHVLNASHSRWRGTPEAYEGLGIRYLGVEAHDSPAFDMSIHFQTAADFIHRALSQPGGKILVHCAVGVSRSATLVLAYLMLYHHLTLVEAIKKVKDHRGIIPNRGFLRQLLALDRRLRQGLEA
As to the kind of experiment: inhibition of Homo sapiens (human) recombinant DUSP26 catalytic domain (61 to 211 amino acid residues) overexpressed in Escherichia coli BL21 (DE3) assessed as hydrolysis of 3-ortho-methylfluorescein phosphate after 30 min by spectrofluorometric analysis.

The target in test [2] is T1, Dual specificity protein phosphatase 26. As to the kind of experiment: Inhibition of DUSP26 (unknown origin)-mediated p38 dephosphorylation.

For the compound `O=C(O)CCN1C(=O)/C(=C/c2cn(-c3ccccc3)nc2-c2cccc([N+](=O)[O-])c2)SC1=S`, the half-inhibitory concentration (IC50) in test [1] came to 22.3 µM.
On to `Cc1ccc(C2=C/C(=C\c3ccc(-c4cccc(C(=O)O)c4)o3)C(=O)O2)cc1`, for which the IC50 in test [1] was above 100 µM.
Still for that read-out and setting: the figure for `CCc1cc(CC)cc(OCCOc2ccccc2/C=C2/C(=O)NN(c3ccccc3)C2=O)c1` is 36.6 µM.
For `O=C1OC(c2ccc(Cl)cc2)=C/C1=C\c1ccc(-c2cccc(C(=O)O)c2)o1`, the IC50 in test [1] is above 100 µM.
On the same count and under the same terms, the figure for `C=CCOc1ccc(/C=C2\SC(=S)N(c3cccc(C(=O)O)c3)C2=O)cc1` is 30.2 µM.
In test [2], `O=S(=O)(O)c1ccc2cc(/N=N/c3cc(S(=O)(=O)O)c4cccnc4c3O)ccc2c1` displayed an IC50 of 16.7 µM.
In the case of `CN1C(=O)/C(=C/c2ccc(OCc3ccc(F)cc3)cc2)S/C1=N/c1cccc(C(=O)O)c1`, the IC50 in test [1] worked out at 26.9 µM.
On the same count and under the same terms, the figure for `CN1C(=O)/C(=C/c2ccc(OCc3cccc([N+](=O)[O-])c3)cc2)S/C1=N/c1cccc(C(=O)O)c1` is 19.8 µM; for `CCN1C(=O)/C(=C/c2ccccc2OCc2ccccc2C#N)S/C1=N/c1ccc(C(=O)O)cc1` it is 41.7 µM.
Take `O=C(O)c1cccc(N2C(=O)/C(=C\c3ccc(O)c(O)c3)SC2=S)c1`: the IC50 in test [1] is 25.1 µM.
The same measure, in the same setting: the figure for `O=C(CN1C(=O)/C(=C\C=C\c2ccccc2)SC1=S)Nc1ccc(O)cc1C(=O)O` is 26.3 µM.
Consider `O=C1OC(c2ccc(Cl)cc2)=C/C1=C\c1ccc(-c2ccc(Cl)c(C(=O)O)c2)o1`, for which the IC50 in test [1] turned out to be 8.9 µM.
Consider `CN1C(=O)/C(=C/c2ccc(OCc3cccc(F)c3)cc2)S/C1=N/c1cccc(C(=O)O)c1`, for which the IC50 in test [1] amounted to 12.5 µM.
Same read-out and setting: the figure for `O=C(O)c1ccc(Cl)cc1Nc1nc2ccccc2nc1NS(=O)(=O)c1ccc(Cl)cc1` is 17 µM.

The record behind these values is ChEMBL document CHEMBL3045606, “Virtual screening and biochemical evaluation of the inhibitors of dual-specificity phosphatase 26” (Med Chem Res, 2013).
